Experimental data reported in patent US10105357B2, “Indication of antibiotic drugs for preparation of cancer inhibition pharmaceutical composition” (LAUNX BIOMEDICAL CO., LTD., priority 2014, dated 2018).
Counter-ions that a name gives are not always drawn. Like-named read-outs stand apart in the source and are kept apart here.

Assays:
Type in all cases: cell-based, human
[1] = system: AGS (Gastric Adenocarcinoma); assay: Cell viability analysis, gastric cancer AGS; settings: Homo sapiens, 72 h
NIH: OVCAR-3 = assay: Cell viability analysis, ovarian cancer NIH: OVCAR-3; settings: Homo sapiens, OVCAR-3, 72 h, read-out: The results of antibiotic drug inhibiting cancer cell lines (cell viability analysis), NIH-OVCAR-3
[2] = system: LoVo (Colorectal Adenocarcinoma); assay: Cell viability analysis, colon cancer LoVo; settings: Homo sapiens, LoVo, 72 h
U-2OS = assay: Cell viability analysis, osteosarcoma U-2OS; settings: Homo sapiens, U2OS, 72 h, read-out: The results of antibiotic drug inhibiting cancer cell lines (cell viability analysis), U2OS
[3] = system: MKN-45 (Gastric Adenocarcinoma); assay: Cell viability analysis, gastric cancer MKN-45; settings: Homo sapiens, MKN-45, 72 h
BxPC-3 = assay: Cell viability analysis, pancreatic cancer BxPC-3; settings: Homo sapiens, BXPC-3, 72 h, read-out: The results of antibiotic drug inhibiting cancer cell lines (cell viability analysis), BxPC-3
[4] = system: TSGH-8301 (Urinary Bladder Carcinoma); assay: Cell viability analysis, bladder cancer TSGH-8301; settings: Homo sapiens, 72 h
[5] = system: C-33A (Cervical carcinoma); assay: Cell viability analysis, cervical cancer C-33A; settings: Homo sapiens, C-33-A, 72 h, read-out: The results of antibiotic drug inhibiting cancer cell lines (cell viability analysis), C-33A
[6] = system: A549 (Lung Adenocarcinoma); assay: Cell viability analysis, lung cancer A549; settings: Homo sapiens, A549, 72 h
[7] = system: BCC (basal cell carcinoma); assay: Cell viability analysis, skin cancer BCC; settings: Homo sapiens, 72 h, read-out: The results of antibiotic drug inhibiting cancer cell lines (cell viability analysis), BCC
[8] = system: HepG2 (Hepatocellular Carcinoma); assay: Cell viability analysis, hepatic cancer HepG2; settings: Homo sapiens, HepG2, 72 h
[9] = system: HeLa (Cervix Adenocarcinoma); assay: Cell viability analysis, cervical cancer HeLa; settings: Homo sapiens, HeLa, 72 h
[10] = system: SAS (Tongue squamous cell carcinoma); assay: Cell viability analysis, tongue cancer SAS; settings: Homo sapiens, 72 h, read-out: The results of antibiotic drug inhibiting cancer cell lines (cell viability analysis), SAS
T24 = assay: Cell viability analysis, bladder cancer T24; settings: Homo sapiens, T-24, 72 h, read-out: The results of antibiotic drug inhibiting cancer cell lines (cell viability analysis), T24
[11] = system: HL-60 (Acute Promyelocytic Leukemia); assay: Cell viability analysis, leukemia HL-60; settings: Homo sapiens, HL-60, 72 h, read-out: cell viability (survival rate), HL-60, drug 10 μM, 72 hours, WST-1, OD450 nm
[12] = system: PC3 (p53−) (Prostate Adenocarcinoma); assay: Cell viability analysis, prostate cancer PC3; settings: Homo sapiens, 72 h
AsPC-1 = assay: Cell viability analysis, pancreatic cancer AsPC-1; settings: Homo sapiens, ASPC1, 72 h, read-out: The results of antibiotic drug inhibiting cancer cell lines (cell viability analysis), AsPC-1
[13] = system: Hep3B (hepatocellular carcinoma); assay: Cell viability analysis, hepatic cancer Hep3B; settings: Homo sapiens, Hep3B, 72 h, read-out: The results of antibiotic drug inhibiting cancer cell lines (cell viability analysis), Hep3B
TOV-21G = assay: Cell viability analysis, ovarian cancer TOV-21G; settings: Homo sapiens, TOV21G, 72 h, read-out: The results of antibiotic drug inhibiting cancer cell lines (cell viability analysis), TOV-21G
[14] = system: MCF7 (Mammary Gland, Adenocarcinoma); assay: Cell viability analysis, breast cancer MCF7; settings: Homo sapiens, MCF7, 72 h
[15] = system: MDA-MB-231 (Mammary Gland, Adenocarcinoma); assay: Cell viability analysis, breast cancer MDA-MB-231; settings: Homo sapiens, MDA-MB-231, 72 h, read-out: The results of antibiotic drug inhibiting cancer cell lines (cell viability analysis), MDA-MB231
cancer cell lines = assay: Cell viability analysis (WST-1) on cancer cell lines; settings: drug 10 μM, 72 hours, WST-1; Table 3
[16] = system: A375 (Amelanotic Melanoma); assay: Cell viability analysis, skin cancer A375; settings: Homo sapiens, A-375, 72 h
[17] = system: HI650 (Lung Adenocarcinoma); assay: Cell viability analysis, lung cancer HI650; settings: Homo sapiens, NCI-H1650, 72 h

Compound `CN(C)[C@@H]1C(O)=C(C(N)=O)C(=O)[C@@]2(O)C(O)=C3C(=O)c4c(O)cccc4[C@@](C)(O)[C@H]3C[C@@H]12` [Tetracycline HCl] has a viability at 10 µM ([1]; read-out: The results of antibiotic drug inhibiting cancer cell lines (cell viability analysis), AGS, repeated experiment) of 94%, a viability at 10 µM ([1]; read-out: cell viability (survival rate), AGS, drug 10 μM, 72 hours, WST-1, OD450 nm) of 88.2% and a viability at 10 µM (NIH: OVCAR-3) of 104%. It also gave a viability at 10 µM ([2]; read-out: The results of antibiotic drug inhibiting cancer cell lines (cell viability analysis), LoVo, repeated experiment) of 92%, a viability at 10 µM ([2]; read-out: cell viability (survival rate), LoVo, drug 10 μM, 72 hours, WST-1, OD450 nm) of 71.8% and a viability at 10 µM (U-2OS) of 53.3%. For the same compound, the viability at 10 µM ([3]; read-out: The results of antibiotic drug inhibiting cancer cell lines (cell viability analysis), MKN-45, MKN-45, repeated experiment) was 133%, the viability at 10 µM ([3]; read-out: cell viability (survival rate), MKN-45, drug 10 μM, 72 hours, WST-1, OD450 nm) was 55.9% and the viability at 10 µM (BxPC-3) was 77.7%. It also gave a viability at 10 µM ([4]; read-out: The results of antibiotic drug inhibiting cancer cell lines (cell viability analysis), TSGH-8301, TSGH-8301, repeated experiment) of 103%, a viability at 10 µM ([4]; read-out: cell viability (survival rate), TSGH, drug 10 μM, 72 hours, WST-1, OD450 nm) of 34.1% and a viability at 10 µM [5] of 103%. For the same compound, the viability at 10 µM ([6]; read-out: The results of antibiotic drug inhibiting cancer cell lines (cell viability analysis), A549, A549, repeated experiment) was 99.7%, the viability at 10 µM ([6]; read-out: cell viability (survival rate), A549, drug 10 μM, 72 hours, WST-1, OD450 nm) was 72.8% and the viability at 10 µM [7] was 100%. It also gave a viability at 10 µM ([8]; read-out: The results of antibiotic drug inhibiting cancer cell lines (cell viability analysis), HepG2, HepG2, repeated experiment) of 106%, a viability at 10 µM ([8]; read-out: cell viability (survival rate), HepG2, drug 10 μM, 72 hours, WST-1, OD450 nm) of 74.1% and a viability at 10 µM ([9]; read-out: The results of antibiotic drug inhibiting cancer cell lines (cell viability analysis), HeLa, repeated experiment) of 79%. For the same compound, the viability at 10 µM ([9]; read-out: cell viability (survival rate), HeLa, drug 10 μM, 72 hours, WST-1, OD450 nm) was 96.1%, the viability at 10 µM [10] was 79.2% and the viability at 10 µM (T24) was 130%. For the same compound, the viability at 10 µM [11] was 93.7%, the viability at 10 µM ([12]; read-out: The results of antibiotic drug inhibiting cancer cell lines (cell viability analysis), PC-3, PC-3, repeated experiment) was 104% and the viability at 10 µM ([12]; read-out: cell viability (survival rate), PC3, drug 10 μM, 72 hours, WST-1, OD450 nm) was 42.9%. For the same compound, the viability at 10 µM (AsPC-1) was 96.7%, the viability at 10 µM [13] was 92.2% and the viability at 10 µM (TOV-21G) was 81.9%. For the same compound, the viability at 10 µM ([14]; read-out: The results of antibiotic drug inhibiting cancer cell lines (cell viability analysis), MCF-7, MCF-7, repeated experiment) was 93.1%, the viability at 10 µM ([14]; read-out: cell viability (survival rate), MCF7, drug 10 μM, 72 hours, WST-1, OD450 nm) was 75.9% and the viability at 10 µM [15] was 88.1%. The “inhibition effect on different cancer cell lines” value (cancer cell lines) was “significant inhibition effect”, the viability at 10 µM ([16]; read-out: The results of antibiotic drug inhibiting cancer cell lines (cell viability analysis), A375, A375, repeated experiment) was 82.8% and the viability at 10 µM ([16]; read-out: cell viability (survival rate), A375, drug 10 μM, 72 hours, WST-1, OD450 nm) was 74.1%. It also gave a viability at 10 µM ([17]; read-out: The results of antibiotic drug inhibiting cancer cell lines (cell viability analysis), H1650, H1650, repeated experiment) of 87.1% and a viability at 10 µM ([17]; read-out: cell viability (survival rate), H1650, drug 10 μM, 72 hours, WST-1, OD450 nm) of 41.1%.
